We go through five compounds from patent publication US8207216B2, “Benzofuran-3-yl(indol-3-yl) maleimides as potent GSK3 inhibitors” (The Board of Trustees of the University of Illinois, priority 2006, dated 2012).

SMILES strings stand for the structures.

The target of one data set is CDK-1/cyclinB (Homo sapiens, UniProt P06493). Kind of data set: CDK panel (Reaction Biology). Type of data set: biochemical. As to conditions: tested at Reaction Biology, Inc.
Data set [1] concerns the target T1, recombinant human His6-GSK-3β (Homo sapiens, UniProt P49841).
T1 construct: His6; purchased EMD Biosciences
Kind of data set: GSK-3β kinase assay, [γ32P] transfer to primed glycogen synthase peptide.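 Note: phosphate incorporation quantified by liquid scintillation counting of the filters.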 It counts as biochemical. As to conditions: 10 μM ATP; 10 μM pGSM peptide; 30 minutes at 30° C.; read-out: IC50 (nM), GSK-3β inhibition.

Another data set concerns the target CDK-3/cyclinE (Homo sapiens, UniProt Q00526). As to conditions: read-out: IC50 (μM) CDK-3/cyclinE; tested at Reaction Biology, Inc.
The target of another data set is CDK-2/cyclinE (Homo sapiens, UniProt P24941). Kind of data set: CDK-2/CyclinE inhibition (Reaction Biology). It counts as biochemical. Particulars: tested at Reaction Biology, Inc.
A further data set concerns the target CDK-4/cyclinD1 (Homo sapiens, UniProt P11802). Kind of data set: CDK panel (Reaction Biology). It counts as biochemical. Particulars: tested at Reaction Biology, Inc.
For the next data set, the target named is CDK-6/cyclinD3 (Homo sapiens, UniProt Q00534). Description: CDK panel (Reaction Biology). It counts as biochemical. Particulars: tested at Reaction Biology, Inc.
For a further data set, the target named is CDK-2/cyclinA (Homo sapiens, UniProt P24941). Description: CDK panel (Reaction Biology). Particulars: tested at Reaction Biology, Inc. Type of data set: biochemical.
For another data set, the target named is CDK-9/cyclinT1 (Homo sapiens, UniProt P50750). Description: CDK panel (Reaction Biology). It counts as biochemical. Particulars: tested at Reaction Biology, Inc.
The target in the next data set is c-Met (Homo sapiens, UniProt P08581). Description: Kinase panel (Novartis). It counts as biochemical.
A further data set concerns HupT3. Kind of data set: Antiproliferation MTS assay, pancreatic cancer cells. Type of data set: cell-based. Particulars: Homo sapiens, HuP-T3, as reported in Gaisina et al. (2009) J. Med. Chem. 52(7), 1853-1863.
A further data set has as its target JNK1 (Homo sapiens, UniProt P45983). Description: Kinase panel (Novartis). Type of data set: biochemical.
The next data set concerns the target FAK (Homo sapiens, UniProt Q05397). Kind of data set: Kinase panel (Novartis). It counts as biochemical.
The next data set deals with JAK-2 (Homo sapiens, UniProt O60674). Kind of data set: Kinase panel (Novartis). It counts as biochemical.
A further data set concerns the target Tek (Homo sapiens, UniProt Q02763). Kind of data set: Kinase panel (Novartis). It counts as biochemical.
The target of the next data set is c-Abl-T3151 (Homo sapiens, UniProt P00519, T315I). Description: Kinase panel (Novartis). Type of data set: biochemical.
In the next data set the target is IGF-1R (Homo sapiens, UniProt P08069). Description: Kinase panel (Novartis). Type of data set: biochemical.
The target of a further data set is CDK2/A (Homo sapiens, UniProt P24941). Kind of data set: Kinase panel (Novartis). Type of data set: biochemical.
A further data set addresses Axl (Homo sapiens, UniProt P30530). Kind of data set: Kinase panel (Novartis). Type of data set: biochemical.
A further data set addresses Ret (Homo sapiens, UniProt P07949). Description: Kinase panel (Novartis). Type of data set: biochemical.
In another data set the target is FGFR-3-K650E (Homo sapiens, UniProt P22607, K650E). Kind of data set: Kinase panel (Novartis). Type of data set: biochemical.
For a further data set, the target named is b-Raf-V599E (Homo sapiens, UniProt P15056, V600E). Kind of data set: Kinase panel (Novartis). Type of data set: biochemical.
The next data set concerns the target Flt-3 (Homo sapiens, UniProt P36888). Kind of data set: Kinase panel (Novartis). Type of data set: biochemical.
The subject of another data set is OVCA432. Description: Antiproliferation assay, ovarian cancer cells. It counts as cell-based. As to conditions: ovarian cancer cell proliferation. As for the experimental part: (§1) The pancreatic cancer cell lines BxPc-3, HupT3, MiaPaCa-2, Panc 04.03, and SU86.86 were obtained from ATCC (Rockville, Md.) and were grown in medium (DMEM or RPMI) containing 10% fetal calf serum and L-glutamine. Pancreatic cancer cells were plated out in duplicate into 6-wells of a 96-well microtiter plate at 2.5−4×10^3 cells per well. Four-hours post plating, individual wells were treated with diluent (DMSO) or varying concentrations of commercial compounds, AR-A014418 and SB216763, or the indicated GSK inhibitors of this invention from a concentration of 1 nM to 50 microM. […] The IC50s were calculated using XLfit (IDBS Limited, Guildford, UK).
(§2) Similar antiproliferation assays were performed using ovarian cancer cells. Compound 40 is of particular interest for inhibition of ovarian cancer cell proliferation.

For a further data set, the system named is SKOV3. Kind of data set: Antiproliferation assay, ovarian cancer cells. As to conditions: Homo sapiens, SK-OV-3; ovarian cancer cell proliferation. Type of data set: cell-based. As for the experimental part:
as §1, §2

Data set [2] deals with C57BL/6J mice. Description: Amphetamine/chlordiazepoxide hyperactivity model of mania, open field locomotor activity. Type of data set: in vivo. As to conditions: 5-ING-135 50 mg/kg, 5 min pretreatment; amphetamine 4 mg/kg + chlordiazepoxide 2.5 mg/kg; 60 min. As for the experimental part: Hyperactivity models are often used to mimic the mania associated with bipolar disorder.
Certain benzofuran-based ligands of this invention were studied in a novel mouse model of mania that has recently been validated with several clinically effective mood stabilizers. […] Mice were then injected with amphetamine (4 mg/kg) or amphetamine (4 mg/kg) and chlordiazepoxide (2.5 mg/kg) and locomotor activity was monitored for 60 min. The open field is a square box surrounded by an array of infra-red beams and their behavior is automatically recorded for 60 minutes in the open field test chamber (10.75″×10.75″×8″H with infra-red (I/R) array, model ENV 510, MED Associates). After this period the animals were returned to their home cages and then to the main colony.
Control treatments are as indicated. FIG. 1B illustrates similar locomotion activity data of treated mice measured in cm over 5 minute intervals for 60 minutes.

A further data set deals with EphB4 (Homo sapiens, UniProt P54760). Kind of data set: Kinase panel (Novartis). Type of data set: biochemical.
Data set [3] in a line: Passage of the brain-blood barrier in animal models. It counts as in vivo. Particulars: as assessed in animal models.
In a further data set the target is c-Abl (Homo sapiens, UniProt P00519). Description: Kinase panel (Novartis). Type of data set: biochemical.
Another data set relates to MIAPaCa-2. Kind of data set: Antiproliferation MTS assay, pancreatic cancer cells. It counts as cell-based. Particulars: Homo sapiens. (Tetrazolium dyes change colour on reduction, which living cells bring about.)
Another data set has as its target c-src (Homo sapiens, UniProt P12931). Description: Kinase panel (Novartis). Type of data set: biochemical.
The target in another data set is HER-1 (Homo sapiens, UniProt P00533). Description: Kinase panel (Novartis). It counts as biochemical.
For a further data set, the target named is T2, PDK1 (Homo sapiens, UniProt O15530).
T2 sequence (O15530 1-556): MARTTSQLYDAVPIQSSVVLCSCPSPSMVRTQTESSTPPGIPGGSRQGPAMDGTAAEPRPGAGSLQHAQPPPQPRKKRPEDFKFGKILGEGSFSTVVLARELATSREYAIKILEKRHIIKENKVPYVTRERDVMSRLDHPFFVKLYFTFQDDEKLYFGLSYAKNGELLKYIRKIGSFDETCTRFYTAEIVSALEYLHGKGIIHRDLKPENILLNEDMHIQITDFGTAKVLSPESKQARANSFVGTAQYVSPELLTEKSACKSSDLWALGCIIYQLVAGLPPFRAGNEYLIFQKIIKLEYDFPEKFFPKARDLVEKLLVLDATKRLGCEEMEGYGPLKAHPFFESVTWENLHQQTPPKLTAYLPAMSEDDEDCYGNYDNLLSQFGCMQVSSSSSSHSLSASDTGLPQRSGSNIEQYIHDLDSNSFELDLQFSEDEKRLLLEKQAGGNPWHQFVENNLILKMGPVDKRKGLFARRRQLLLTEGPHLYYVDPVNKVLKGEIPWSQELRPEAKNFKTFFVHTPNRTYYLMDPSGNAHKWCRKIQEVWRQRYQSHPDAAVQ
Description: Kinase panel (Novartis). Type of data set: biochemical.

The target of the next data set is KDR (Homo sapiens, UniProt P35968). Description: Kinase panel (Novartis). Type of data set: biochemical.
A further data set has as its target PKCα (Homo sapiens, UniProt P17252). Description: Kinase panel (Novartis). Type of data set: biochemical.
For a further data set, the target named is CDK-5/P35 (Homo sapiens, UniProt Q00535). Kind of data set: CDK panel (Reaction Biology). It counts as biochemical. Particulars: tested at Reaction Biology, Inc.
A further data set addresses CDK-5/P25 (Homo sapiens, UniProt Q00535). Description: CDK panel (Reaction Biology). It counts as biochemical. Particulars: tested at Reaction Biology, Inc.
Another data set relates to mice. As to conditions: Hanania et al. 2005, Brody et al. 2003; cited from earlier work.
Data set [4] relates to C57BL/6J mice. Particulars: Hanania et al. 2005; cited from earlier work.

T1 sequence (P49841 whole entry): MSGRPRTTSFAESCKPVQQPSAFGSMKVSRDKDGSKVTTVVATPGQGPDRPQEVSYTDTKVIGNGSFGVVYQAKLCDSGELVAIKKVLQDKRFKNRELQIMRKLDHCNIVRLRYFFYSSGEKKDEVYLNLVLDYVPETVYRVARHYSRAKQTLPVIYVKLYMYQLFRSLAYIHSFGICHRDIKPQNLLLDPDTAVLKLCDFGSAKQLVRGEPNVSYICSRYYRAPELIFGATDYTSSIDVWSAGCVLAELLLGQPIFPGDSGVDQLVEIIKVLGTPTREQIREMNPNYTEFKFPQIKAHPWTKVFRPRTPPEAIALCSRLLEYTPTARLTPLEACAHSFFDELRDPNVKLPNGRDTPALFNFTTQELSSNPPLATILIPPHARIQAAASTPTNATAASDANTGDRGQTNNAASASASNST
Chain of FGFR-3-K650E (P22607 23-806 K650E): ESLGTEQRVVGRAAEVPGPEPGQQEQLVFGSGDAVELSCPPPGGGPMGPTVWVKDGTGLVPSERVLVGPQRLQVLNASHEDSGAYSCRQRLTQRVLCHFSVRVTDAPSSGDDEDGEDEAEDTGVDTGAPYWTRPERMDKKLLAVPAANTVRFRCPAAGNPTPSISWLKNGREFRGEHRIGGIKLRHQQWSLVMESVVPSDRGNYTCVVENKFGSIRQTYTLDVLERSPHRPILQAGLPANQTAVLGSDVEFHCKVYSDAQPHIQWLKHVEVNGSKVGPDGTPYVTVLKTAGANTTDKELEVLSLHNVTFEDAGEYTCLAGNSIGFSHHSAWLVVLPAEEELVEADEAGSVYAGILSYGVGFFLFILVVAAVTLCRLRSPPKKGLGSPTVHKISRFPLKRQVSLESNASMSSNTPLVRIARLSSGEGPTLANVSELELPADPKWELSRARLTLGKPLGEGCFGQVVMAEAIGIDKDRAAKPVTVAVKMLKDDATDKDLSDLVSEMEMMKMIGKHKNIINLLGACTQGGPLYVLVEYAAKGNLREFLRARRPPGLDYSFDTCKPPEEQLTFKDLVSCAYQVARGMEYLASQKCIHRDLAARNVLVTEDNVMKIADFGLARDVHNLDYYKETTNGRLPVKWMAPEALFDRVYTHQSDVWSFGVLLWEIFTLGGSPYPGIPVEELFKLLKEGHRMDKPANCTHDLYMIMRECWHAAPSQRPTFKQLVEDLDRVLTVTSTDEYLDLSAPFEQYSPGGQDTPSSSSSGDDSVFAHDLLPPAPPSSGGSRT
Chain of CDK-9/cyclinT1 (P50750 whole entry, species assumed): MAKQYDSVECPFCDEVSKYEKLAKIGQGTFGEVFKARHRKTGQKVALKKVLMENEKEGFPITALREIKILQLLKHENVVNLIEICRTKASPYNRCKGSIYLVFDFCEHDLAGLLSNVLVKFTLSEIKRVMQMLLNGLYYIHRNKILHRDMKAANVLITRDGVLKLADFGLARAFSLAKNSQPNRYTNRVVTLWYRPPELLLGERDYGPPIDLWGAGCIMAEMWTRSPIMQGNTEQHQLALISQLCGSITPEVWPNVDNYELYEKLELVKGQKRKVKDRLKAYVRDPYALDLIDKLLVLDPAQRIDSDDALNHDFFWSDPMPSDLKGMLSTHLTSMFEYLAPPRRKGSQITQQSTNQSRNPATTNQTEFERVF
Chain of CDK-9/cyclinT1 (O60563 whole entry partner, species assumed): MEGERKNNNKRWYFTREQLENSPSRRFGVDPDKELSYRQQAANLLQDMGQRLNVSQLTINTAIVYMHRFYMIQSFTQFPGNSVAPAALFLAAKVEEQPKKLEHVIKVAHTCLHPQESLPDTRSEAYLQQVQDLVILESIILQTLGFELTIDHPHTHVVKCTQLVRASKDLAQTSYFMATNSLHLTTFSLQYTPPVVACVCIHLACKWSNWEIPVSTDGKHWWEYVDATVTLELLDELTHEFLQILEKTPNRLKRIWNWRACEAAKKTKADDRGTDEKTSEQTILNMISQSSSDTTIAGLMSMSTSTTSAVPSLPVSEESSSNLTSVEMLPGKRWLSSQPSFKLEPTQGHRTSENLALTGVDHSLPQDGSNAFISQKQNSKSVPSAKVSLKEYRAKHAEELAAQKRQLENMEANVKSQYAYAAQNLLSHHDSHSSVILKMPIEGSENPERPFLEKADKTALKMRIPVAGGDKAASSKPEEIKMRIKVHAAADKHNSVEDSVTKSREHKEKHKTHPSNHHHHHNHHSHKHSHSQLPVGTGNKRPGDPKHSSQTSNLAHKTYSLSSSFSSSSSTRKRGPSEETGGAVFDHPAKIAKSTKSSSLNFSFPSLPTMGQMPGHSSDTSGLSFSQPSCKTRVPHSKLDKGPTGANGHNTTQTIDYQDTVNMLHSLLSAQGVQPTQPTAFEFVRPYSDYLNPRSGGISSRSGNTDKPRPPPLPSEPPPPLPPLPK
Chain of IGF-1R (P08069 31-1367, species assumed): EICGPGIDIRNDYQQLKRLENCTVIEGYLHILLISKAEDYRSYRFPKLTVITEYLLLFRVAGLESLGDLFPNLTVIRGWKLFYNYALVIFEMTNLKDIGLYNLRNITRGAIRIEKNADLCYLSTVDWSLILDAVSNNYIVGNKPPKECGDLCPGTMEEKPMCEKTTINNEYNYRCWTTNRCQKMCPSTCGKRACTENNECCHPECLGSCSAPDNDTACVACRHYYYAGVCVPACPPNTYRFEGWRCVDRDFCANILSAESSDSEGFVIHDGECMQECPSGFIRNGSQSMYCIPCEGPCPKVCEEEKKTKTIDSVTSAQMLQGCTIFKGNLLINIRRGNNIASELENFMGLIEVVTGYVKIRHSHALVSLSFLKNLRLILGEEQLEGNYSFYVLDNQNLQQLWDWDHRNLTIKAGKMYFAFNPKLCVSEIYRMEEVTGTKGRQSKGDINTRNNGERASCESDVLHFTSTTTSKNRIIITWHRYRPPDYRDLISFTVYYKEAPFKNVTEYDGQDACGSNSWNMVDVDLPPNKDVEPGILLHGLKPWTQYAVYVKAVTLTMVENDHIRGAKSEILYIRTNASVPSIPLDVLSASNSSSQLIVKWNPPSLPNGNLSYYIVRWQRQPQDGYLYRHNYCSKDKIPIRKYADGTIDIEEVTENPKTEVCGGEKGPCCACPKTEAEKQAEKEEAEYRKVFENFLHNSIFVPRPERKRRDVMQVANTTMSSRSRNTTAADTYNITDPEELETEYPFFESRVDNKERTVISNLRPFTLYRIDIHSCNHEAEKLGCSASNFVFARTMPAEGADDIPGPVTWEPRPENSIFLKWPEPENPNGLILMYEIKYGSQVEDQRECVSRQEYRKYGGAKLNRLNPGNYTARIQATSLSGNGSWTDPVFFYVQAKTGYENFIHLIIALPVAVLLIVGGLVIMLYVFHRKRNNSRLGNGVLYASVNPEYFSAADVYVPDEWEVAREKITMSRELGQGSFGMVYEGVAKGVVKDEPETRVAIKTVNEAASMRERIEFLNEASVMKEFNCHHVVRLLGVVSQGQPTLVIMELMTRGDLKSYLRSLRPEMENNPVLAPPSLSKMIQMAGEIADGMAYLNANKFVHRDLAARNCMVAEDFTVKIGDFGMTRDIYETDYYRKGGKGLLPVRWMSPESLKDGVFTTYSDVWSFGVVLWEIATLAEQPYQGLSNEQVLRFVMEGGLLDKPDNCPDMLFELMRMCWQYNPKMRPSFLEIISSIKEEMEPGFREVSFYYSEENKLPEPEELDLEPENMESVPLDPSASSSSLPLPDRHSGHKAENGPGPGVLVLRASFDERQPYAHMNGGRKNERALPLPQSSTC
Chain of CDK-6/cyclinD3 (Q00534 whole entry, species assumed): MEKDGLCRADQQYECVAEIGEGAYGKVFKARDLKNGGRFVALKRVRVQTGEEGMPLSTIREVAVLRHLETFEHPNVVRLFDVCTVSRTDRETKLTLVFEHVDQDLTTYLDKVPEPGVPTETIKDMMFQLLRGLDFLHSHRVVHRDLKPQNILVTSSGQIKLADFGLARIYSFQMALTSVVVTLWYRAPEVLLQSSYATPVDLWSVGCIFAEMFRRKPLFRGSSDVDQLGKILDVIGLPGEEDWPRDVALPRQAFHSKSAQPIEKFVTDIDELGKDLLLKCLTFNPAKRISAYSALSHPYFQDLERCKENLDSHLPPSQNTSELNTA
Chain of CDK-6/cyclinD3 (P30281 whole entry partner, species assumed): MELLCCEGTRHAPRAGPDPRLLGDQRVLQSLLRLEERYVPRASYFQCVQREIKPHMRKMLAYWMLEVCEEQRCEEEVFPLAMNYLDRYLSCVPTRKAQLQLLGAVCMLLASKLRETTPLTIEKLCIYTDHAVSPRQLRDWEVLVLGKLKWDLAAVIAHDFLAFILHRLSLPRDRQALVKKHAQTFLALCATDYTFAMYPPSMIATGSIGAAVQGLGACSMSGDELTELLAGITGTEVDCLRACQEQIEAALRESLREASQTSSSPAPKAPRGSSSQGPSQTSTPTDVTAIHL
Chain of CDK-4/cyclinD1 (P11802 whole entry, species assumed): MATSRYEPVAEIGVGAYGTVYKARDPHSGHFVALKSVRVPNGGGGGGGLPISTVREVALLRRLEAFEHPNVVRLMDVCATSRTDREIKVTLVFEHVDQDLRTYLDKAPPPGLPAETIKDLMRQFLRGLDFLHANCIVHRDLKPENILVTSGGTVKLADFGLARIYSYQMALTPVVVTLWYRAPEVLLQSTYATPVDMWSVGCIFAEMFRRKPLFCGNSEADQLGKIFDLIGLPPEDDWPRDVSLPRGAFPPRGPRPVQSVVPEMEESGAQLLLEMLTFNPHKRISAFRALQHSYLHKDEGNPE
Chain of CDK-4/cyclinD1 (P24385 whole entry partner, species assumed): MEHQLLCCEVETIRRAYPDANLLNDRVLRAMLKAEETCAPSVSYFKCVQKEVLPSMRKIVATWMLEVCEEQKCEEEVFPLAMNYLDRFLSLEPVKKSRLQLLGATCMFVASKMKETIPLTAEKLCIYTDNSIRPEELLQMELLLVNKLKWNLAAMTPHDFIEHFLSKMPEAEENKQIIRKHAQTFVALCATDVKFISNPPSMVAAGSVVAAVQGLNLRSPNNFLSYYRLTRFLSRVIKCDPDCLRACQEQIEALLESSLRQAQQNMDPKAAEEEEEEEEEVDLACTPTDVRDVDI

In the case of `Cn1cc(C2=C(c3coc4cc(CO)ccc34)C(=O)NC2=O)c2cc(F)c(Cl)cc21` [Compound 13, 3-(6-Chloro-5-fluoro-1-methyl-1H-indol-3-yl)-4-(6-hydroxymethyl-benzofuran-3-yl)-pyrrole-2,5-dione], the IC50 at CDK-1/cyclinB was 13.4 µM; in data set [1], 0.95 ± 0.19 nM; at CDK-3/cyclinE, 25.1 µM; on CDK-2/cyclinE, 11700 nM; against CDK-4/cyclinD1 it was 18.3 µM; on CDK-6/cyclinD3, 11.6 µM. The IC50 worked out at 10.6 µM on CDK-2/cyclinA and 5.4 µM at CDK-9/cyclinT1.
What is called Ki is the equilibrium dissociation constant of an inhibitor or competing ligand from its target. Lower therefore signals tighter binding. With `Cn1cc(C2=C(c3coc4ccccc34)C(=O)NC2=O)c2cc(Br)ccc21` [Compound 19, 3-Benzofuran-3-yl-4-(5-bromo-1-methyl-1H-indol-3-yl)-pyrrole-2,5-dione], the IC50 was more than 10 µM at c-Met; 43 ± 6.3 µM with HupT3; more than 10 µM against JNK1; more than 10 µM on FAK; more than 10 µM against JAK-2; more than 10 µM at Tek. Also, the IC50 on c-Abl-T3151 is more than 10 µM; against IGF-1R it was more than 10 µM; at CDK2/A, 3.98 µM; against Axl, more than 10 µM; against Ret it was more than 10 µM; at FGFR-3-K650E, more than 10 µM. The IC50 is more than 10 µM on b-Raf-V599E; more than 10 µM against Flt-3; 33.6 µM with OVCA432; 74.5 µM with SKOV3; more than 10 µM on EphB4; more than 10 µM against c-Abl. Besides, the IC50 was 30 ± 2.2 µM with MIAPaCa-2 (MIA PaCa-2, as reported in Gaisina et al. (2009) J. Med. Chem. 52(7), 1853-1863); 30 µM in the data set with MIAPaCa-2 (MIA PaCa-2, 72 hrs, MTS); more than 10 µM at c-src; more than 10 µM against HER-1; more than 10 µM on PDK1; more than 10 µM on KDR. At PKCα, the IC50 was 61.4 µM. On CDK2/A, this compound registered a Ki of 189 nM. Further, in the data set with C57BL/6J mice [2], the “Inhibition of hyperactivity produced by amphetamine/chlordiazepoxide (locomotor activity)” value is “inhibited the hyperactivity”. The “Ability to pass the brain-blood barrier” value in [3] was “ability to pass the brain-blood barrier”.
Turning to `Cn1cc(C2=C(c3coc4ccccc34)C(=O)NC2=O)c2ccc(O)cc21` [Compound 45, 3-Benzofuran-3-yl-4-(6-hydroxy-1-methyl-1H-indol-3-yl)-pyrrole-2,5-dione], the IC50 against c-Met was more than 10 µM; in [1], 15 ± 3 nM; against FAK, more than 10 µM; at JAK-2, more than 10 µM; against Tek it was more than 10 µM; on c-Abl-T3151 it was more than 10 µM. Moreover, the IC50 against IGF-1R was more than 10 µM; against CDK2/A, more than 10 µM; against Axl, more than 10 µM; against Ret it was 5 µM; on FGFR-3-K650E, 7 µM; on b-Raf-V599E, more than 10 µM. Also, the IC50 is more than 10 µM on Flt-3; more than 10 µM on EphB4; more than 10 µM at c-Abl; 4.5 µM against c-src; 6.3 µM on HER-1; 0.73 µM on PDK1. Moreover, the IC50 on KDR was determined as 2.2 µM.
As for `COCc1cccc2c(C3=C(c4coc5ccccc45)C(=O)NC3=O)cn(C)c12` [Compound 52, 3-Benzofuran-3-yl-4-(7-methoxymethyl-1-methyl-1H-indol-3-yl)-pyrrole-2,5-dione], the IC50 was 8.53 µM against CDK-1/cyclinB; 0.23 ± 0.04 nM in data set [1]; 17.7 µM on CDK-3/cyclinE; 3880 nM against CDK-2/cyclinE; 8.62 µM against CDK-4/cyclinD1; 8.33 µM on CDK-6/cyclinD3. The IC50 on CDK-2/cyclinA worked out at 4.09 µM; against CDK-9/cyclinT1 it was 16 µM; on CDK-5/P35, 12.7 µM; against CDK-5/P25, 12.9 µM.
With `Nc1nnc(-c2cccc(Cl)c2Cl)c(N)n1` [lamotrigine], in the data set with mice, the “Sensorimotor gating (prepulse inhibition)” value is recorded as “improve sensorimotor gating”. Further, the “Block of CDP + amphetamine hyperactivity by mood stabilizers” value with C57BL/6J mice [4] was “blocked”.
